Values quoted from earlier work in patent US20110130355A1, “USE OF SOPHORICOSIDE IN THE MANUFACTURE OF MEDICAMENTS” (priority 2008, published 2011).
Where two headings read alike, the source gives them in different places.

How the values were obtained:
[1] = system: rabbit articular chondrocytes; conditions: cited from earlier work
[2] = system: femoral-metaphyseal tissues; conditions: in vitro, tissues from aging female rats; cited from earlier work
ovariectomized rats = conditions: cited from earlier work

Structure (SMILES): C[C@]12CC[C@@H]3c4ccc(O)cc4CC[C@H]3[C@@H]1CC[C@@H]2O [17β-estradiol]
- degradation of proteoglycan induced by interleukin (IL) 1β ([1]; high concentration, 10 nmol/l): increased its effect
- degradation of proteoglycan induced by interleukin (IL) 1β ([1]; low concentration, 0.1 nmol/l): inhibited the degradation of proteoglycan induced by interleukin (IL) 1β

Structure (SMILES): O=c1c(-c2ccc(O)cc2)coc2cc(O)cc(O)c12 [genistein]
- contents of alkaline phosphatase, DNA and calcium in the femoral-metaphyseal tissues [2]: substantially increases

Structure (SMILES): O=c1c(-c2ccc(O)cc2)coc2cc(O[C@@H]3O[C@H](CO)[C@@H](O)[C@H](O)[C@H]3O)cc(O)c12 [genistin, genistein-7-O-glucopyranoside]
- loss of bone mass (ovariectomized rats): prevent loss of bone mass
- contents of alkaline phosphatase, DNA and calcium in the femoral-metaphyseal tissues [2]: substantially increases
